Values joined by “and” are separate entries in the source; they are usually repeats but may differ in a detail not shown here. Identical values can stand only once. Toxic doses and inconclusive results are not listed. Square brackets hold non-standard residues; d marks the D form. Peptide text beside a SMILES is read from it. ξ: configuration not given here. ξPhe(4-N(CH2CH2Cl)2) = NC(Cc1ccc(N(CCCl)CCCl)cc1)C(=O)O; Aad = N[CH](CCCC(=O)O)C(=O)O
Tested on: P388 leukemia ip, CD2F1 mice, survival T/C
Test: NCI In Vivo Anticancer Drug Screen. Data for tumor model P388 Leukemia (intraperitoneal) in CD2F1 (CDF1) mice
Details: endpoint: median survival time, higher = longer survival
Procedure, shortened: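 Mice carrying the transplanted tumor received test compound or vehicle. Survival was recorded in each group, and the value is the treated-group measurement divided by that of the vehicle-treated control group.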

[1] = dose: 50.0 mg/kg/injection, schedule: Q01DX009 (ip), vehicle: saline with Tween-80
[2] = dose: 100.0 mg/kg/injection, schedule: Q01DX009 (ip), vehicle: saline with Tween-80
[3] = dose: 200.0 mg/kg/injection, schedule: Q01DX009 (ip), vehicle: saline with Tween-80

SMILES: CCOC(=O)C(Cc1ccc(N(CCCl)CCCl)cc1)NC(=O)C(CCC(=O)O)NC(=O)C(Cc1ccc(O)cc1)NC(=O)C(CCCC(=O)O)NC(=O)C(N)Cc1ccc(O)cc1 (stereo unspecified) (H-Y[Aad]YE[ξPhe(4-N(CH2CH2Cl)2)]-OEt; configuration not given here)
- T/C (dose: 25.0 mg/kg/injection, schedule: Q01DX009 (ip), vehicle: Klucel (hydroxypropylcellulose) (HPC)): 162 % of control
- T/C (dose: 50.0 mg/kg/injection, schedule: Q01DX009 (ip), vehicle: Klucel (hydroxypropylcellulose) (HPC)): 173 % of control and 186 % of control
- T/C (dose: 100.0 mg/kg/injection, schedule: Q01DX009 (ip), vehicle: Klucel (hydroxypropylcellulose) (HPC)): 189 % of control and 230 % of control
- T/C (dose: 200.0 mg/kg/injection, schedule: Q01DX009 (ip), vehicle: Klucel (hydroxypropylcellulose) (HPC)): 218 % of control and 220 % of control

SMILES: N#Cc1ncn(Cc2ccccc2)c1N
- T/C (dose: 15.0 mg/kg/injection, schedule: Q01DX005 (ip), vehicle: saline with Tween-80): 95 % of control
- T/C (dose: 30.0 mg/kg/injection, schedule: Q01DX005 (ip), vehicle: saline with Tween-80): 101 % of control
- T/C (dose: 60.0 mg/kg/injection, schedule: Q01DX005 (ip), vehicle: saline with Tween-80): 105 % of control and 109 % of control

SMILES: CC1(C)CC(OP2(=O)NCCCO2)CC(C)(C)N1O (stereo unspecified)
- T/C (dose: 27.5 mg/kg/injection, schedule: Q01DX001 (ip), vehicle: saline): 150 % of control
- T/C (dose: 55.0 mg/kg/injection, schedule: Q01DX001 (ip), vehicle: saline): 165 % of control

SMILES: O=CC1(c2ccco2)SCCCS1
- T/C [1]: 106 % of control
- T/C [2]: 104 % of control
- T/C [3]: 104 % of control

SMILES: O=C1c2ccccc2C(=O)c2c(O)c(NCCCN(CCO)CCO)cc(O)c21
- T/C (dose: 50.0 mg/kg/injection, schedule: Q01DX005 (ip), vehicle: saline with Tween-80): 101 % of control
- T/C (dose: 100.0 mg/kg/injection, schedule: Q01DX005 (ip), vehicle: saline with Tween-80): 109 % of control
- T/C (dose: 200.0 mg/kg/injection, schedule: Q01DX005 (ip), vehicle: saline with Tween-80): 113 % of control

SMILES: CC(=NCCN=C(C)c1cc(C)ccc1O)c1cc(C)ccc1O
- T/C (dose: 100.0 mg/kg/injection, schedule: Q04DX002 (ip), vehicle: Klucel (hydroxypropylcellulose) (HPC)): 101 % of control
- T/C (dose: 200.0 mg/kg/injection, schedule: Q04DX002 (ip), vehicle: Klucel (hydroxypropylcellulose) (HPC)): 100 % of control
- T/C (dose: 400.0 mg/kg/injection, schedule: Q04DX002 (ip), vehicle: Klucel (hydroxypropylcellulose) (HPC)): 99 % of control

SMILES: Cc1ccc(NC(=O)OCCN(C)C(=O)Nc2ccc(C)cc2C)c(C)c1
- T/C (dose: 30.0 mg/kg/injection, schedule: Q01DX005 (ip), vehicle: Klucel (hydroxypropylcellulose) (HPC)): 98 % of control
- T/C (dose: 60.0 mg/kg/injection, schedule: Q01DX005 (ip), vehicle: Klucel (hydroxypropylcellulose) (HPC)): 103 % of control and 94 % of control
- T/C (dose: 120.0 mg/kg/injection, schedule: Q01DX005 (ip), vehicle: Klucel (hydroxypropylcellulose) (HPC)): 98 % of control
- T/C (dose: 240.0 mg/kg/injection, schedule: Q01DX005 (ip), vehicle: Klucel (hydroxypropylcellulose) (HPC)): 86 % of control

SMILES: COc1cc2c(cc1NC(=O)N(CCCl)N=O)-c1ccccc1C2
- T/C (dose: 350.0 mg/kg/injection, schedule: Q04DX003 (ip), vehicle: Klucel (hydroxypropylcellulose) (HPC)): 163 % of control

SMILES: CC(C)C(NC(=O)C(NC(=O)C(CCCN=C(N)N)NC(=O)C(N)CCCCN)C(C)C)C(N)=O (stereo unspecified) (H-KRVV-NH2; configuration not given here)
- T/C (dose: 12.5 mg/kg/injection, schedule: Q01DX009 (ip), vehicle: water): 114 % of control
- T/C (dose: 25.0 mg/kg/injection, schedule: Q01DX009 (ip), vehicle: water): 104 % of control
- T/C (dose: 50.0 mg/kg/injection, schedule: Q01DX009 (ip), vehicle: water): 110 % of control
- T/C (dose: 100.0 mg/kg/injection, schedule: Q01DX009 (ip), vehicle: water): 104 % of control
- T/C (dose: 200.0 mg/kg/injection, schedule: Q01DX009 (ip), vehicle: water): 99 % of control

SMILES: COc1ccc2c(c1)C=C([N+](=O)[O-])C(N1CCOCC1)O2 (stereo unspecified)
- T/C (dose: 12.5 mg/kg/injection, schedule: Q01DX005 (ip), vehicle: Klucel (hydroxypropylcellulose) (HPC)): 106 % of control
- T/C (dose: 25.0 mg/kg/injection, schedule: Q01DX005 (ip), vehicle: Klucel (hydroxypropylcellulose) (HPC)): 108 % of control
- T/C (dose: 50.0 mg/kg/injection, schedule: Q01DX005 (ip), vehicle: Klucel (hydroxypropylcellulose) (HPC)): 101 % of control and 109 % of control

SMILES: CCN(CC)c1nc(N)nc(N)n1
- T/C (dose: 6.25 mg/kg/injection, schedule: Q01DX009 (ip), vehicle: saline): 106 % of control
- T/C (dose: 12.5 mg/kg/injection, schedule: Q01DX009 (ip), vehicle: saline with Tween-80): 107 % of control
- T/C (dose: 12.5 mg/kg/injection, schedule: Q01DX009 (ip), vehicle: saline): 103 % of control
- T/C (dose: 25.0 mg/kg/injection, schedule: Q01DX009 (ip), vehicle: saline with Tween-80): 103 % of control
- T/C (dose: 25.0 mg/kg/injection, schedule: Q01DX009 (ip), vehicle: saline): 107 % of control and 94 % of control
- T/C [1]: 107 % of control and 94 % of control
- T/C (dose: 50.0 mg/kg/injection, schedule: Q01DX009 (ip), vehicle: saline): 100 % of control
- T/C [2]: 101 % of control
- T/C (dose: 100.0 mg/kg/injection, schedule: Q01DX009 (ip), vehicle: saline): 97 % of control
- T/C [3]: 88 % of control

From PubChem BioAssay AID330 (DTP/NCI, 2004)
